Data reported in PubChem BioAssay AID330 (DTP/NCI, 2004).
Where “and” joins values, the source holds several entries; their conditions need not be identical. Identical values can stand only once. Toxic doses and inconclusive results are not listed. Rule for the calls: active = survival T/C of 150% or more; inactive = T/C below 125% in these data.

Tested on: P388 leukemia ip, CD2F1 mice, survival T/C
Experiment: NCI In Vivo Anticancer Drug Screen. Data for tumor model P388 Leukemia (intraperitoneal) in CD2F1 (CDF1) mice
Conditions: endpoint: median survival time, higher = longer survival
Method in brief: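 Mice carrying the transplanted tumor received test compound or vehicle. Survival was recorded in each group, and the value is the treated-group measurement divided by that of the vehicle-treated control group.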

[1] = dose: 50.0 mg/kg/injection, schedule: Q01DX005 (ip), vehicle: saline with Tween-80
[2] = dose: 100.0 mg/kg/injection, schedule: Q01DX005 (ip), vehicle: saline with Tween-80
[3] = dose: 200.0 mg/kg/injection, schedule: Q01DX005 (ip), vehicle: saline with Tween-80
[4] = dose: 60.0 mg/kg/injection, schedule: Q01DX005 (ip), vehicle: saline with Tween-80
[5] = dose: 120.0 mg/kg/injection, schedule: Q01DX005 (ip), vehicle: saline with Tween-80
[6] = dose: 240.0 mg/kg/injection, schedule: Q01DX005 (ip), vehicle: saline with Tween-80

Measured: T/C

CCN(CC)CCOc1ccc(N(CCCl)CCCl)cc1
inactive: dose: 3.13 mg/kg/injection, schedule: Q04DX003 (ip), vehicle: Klucel (hydroxypropylcellulose) (HPC) 117 % of control | dose: 25.0 mg/kg/injection, schedule: Q04DX003 (ip), vehicle: Klucel (hydroxypropylcellulose) (HPC) 90 % of control
active: dose: 12.5 mg/kg/injection, schedule: Q04DX003 (ip), vehicle: Klucel (hydroxypropylcellulose) (HPC) 153 % of control and 168 % of control

COc1ccc2c(c1)C1CN(Cc3ccccc31)C2 (stereo unspecified)
inactive: dose: 100.0 mg/kg/injection, schedule: Q01DX001 (ip), vehicle: saline with Tween-80 99 % of control

CN(C)CCC(=O)c1cccc(O)c1
inactive: dose: 25.0 mg/kg/injection, schedule: Q01DX009 (ip), vehicle: saline 107 % of control | dose: 50.0 mg/kg/injection, schedule: Q01DX009 (ip), vehicle: saline 98 % of control and 105 % of control | dose: 100.0 mg/kg/injection, schedule: Q01DX009 (ip), vehicle: saline 98 % of control and 109 % of control | dose: 200.0 mg/kg/injection, schedule: Q01DX009 (ip), vehicle: saline 97 % of control

O=c1[nH]c(=O)n([C@H]2CCCO2)cc1F
inactive: dose: 44.0 mg/kg/injection, schedule: Q01DX009 (ip), vehicle: Klucel (hydroxypropylcellulose) (HPC) 111 % of control | dose: 50.0 mg/kg/injection, schedule: Q01DX009 (ip), vehicle: saline with Tween-80 104 % of control | dose: 59.0 mg/kg/injection, schedule: Q01DX009 (ip), vehicle: Klucel (hydroxypropylcellulose) (HPC) 114 % of control | dose: 90.0 mg/kg/injection, schedule: Q01DX009 (ip), vehicle: Klucel (hydroxypropylcellulose) (HPC) 124 % of control | dose: 142.0 mg/kg/injection, schedule: Q04DX003 (ip), vehicle: Klucel (hydroxypropylcellulose) (HPC) 109 % of control | dose: 189.0 mg/kg/injection, schedule: Q04DX003 (ip), vehicle: Klucel (hydroxypropylcellulose) (HPC) 115 % of control | dose: 200.0 mg/kg/injection, schedule: Q01DX009 (ip), vehicle: saline with Tween-80 93 % of control | dose: 201.0 mg/kg/injection, schedule: Q01DX009 (ip), vehicle: Klucel (hydroxypropylcellulose) (HPC) 95 % of control | dose: 316.0 mg/kg/injection, schedule: Q01DX001 (ip), vehicle: Klucel (hydroxypropylcellulose) (HPC) 107 % of control | dose: 421.0 mg/kg/injection, schedule: Q01DX001 (ip), vehicle: Klucel (hydroxypropylcellulose) (HPC) 115 % of control | dose: 641.0 mg/kg/injection, schedule: Q01DX001 (ip), vehicle: Klucel (hydroxypropylcellulose) (HPC) 120 % of control | dose: 645.0 mg/kg/injection, schedule: Q04DX003 (ip), vehicle: Klucel (hydroxypropylcellulose) (HPC) 120 % of control

CCCC[As](CCCC)SC1CC(OC(=O)c2ccccc2)C(OC(=O)c2ccccc2)C(COC(=O)c2ccccc2)O1 (stereo unspecified)
inactive: dose: 6.25 mg/kg/injection, schedule: Q01DX009 (ip), vehicle: saline + alcohol 108 % of control | dose: 12.5 mg/kg/injection, schedule: Q01DX009 (ip), vehicle: saline + alcohol 95 % of control | dose: 25.0 mg/kg/injection, schedule: Q01DX009 (ip), vehicle: saline + alcohol 105 % of control | dose: 50.0 mg/kg/injection, schedule: Q01DX009 (ip), vehicle: saline + alcohol 100 % of control

Oc1ccc(CCNCc2ccc3c(c2)OCO3)cc1
inactive: dose: 100.0 mg/kg/injection, schedule: Q04DX003 (ip), vehicle: saline with Tween-80 99 % of control | dose: 200.0 mg/kg/injection, schedule: Q04DX003 (ip), vehicle: saline with Tween-80 95 % of control

CCOC(=O)N1C=CC(=C2C(=C3C=CN(C(=O)OCC)C=C3)C(=C3C=CN(C(=O)OCC)C=C3)C2=C2C=CN(C(=O)OCC)C=C2)C=C1
inactive: dose: 25.0 mg/kg/injection, schedule: Q01DX005 (ip), vehicle: saline with Tween-80 100 % of control | [1] 101 % of control and 102 % of control and 117 % of control | [2] 100 % of control and 105 % of control and 109 % of control | [3] 99 % of control

CC1=C(C)C(=O)O[C@@H]([C@](C)(O)[C@]2(O)CC[C@@]3(O)[C@@H]4C[C@H](O)[C@]5(O)[C@@H](O)C=CC(=O)[C@]5(C)[C@H]4CC[C@]23C)C1
inactive: dose: 4.0 mg/kg/injection, schedule: Q01DX005 (ip), vehicle: distilled water + Tween-80 100 % of control | dose: 8.0 mg/kg/injection, schedule: Q01DX005 (ip), vehicle: distilled water + Tween-80 102 % of control | dose: 16.0 mg/kg/injection, schedule: Q01DX005 (ip), vehicle: distilled water + Tween-80 107 % of control | dose: 32.0 mg/kg/injection, schedule: Q01DX005 (ip), vehicle: distilled water + Tween-80 106 % of control and 112 % of control | dose: 64.0 mg/kg/injection, schedule: Q01DX005 (ip), vehicle: distilled water + Tween-80 99 % of control and 107 % of control | dose: 128.0 mg/kg/injection, schedule: Q01DX005 (ip), vehicle: distilled water + Tween-80 99 % of control

O=c1[nH]c(=O)n(C2OC(CCl)C(O)C2O)cc1F (stereo unspecified)
inactive: dose: 30.0 mg/kg/injection, schedule: Q04DX002 (ip), vehicle: saline 99 % of control | dose: 43.0 mg/kg/injection, schedule: Q04DX002 (ip), vehicle: water 104 % of control | dose: 60.0 mg/kg/injection, schedule: Q04DX002 (ip), vehicle: saline 102 % of control | dose: 86.0 mg/kg/injection, schedule: Q04DX002 (ip), vehicle: water 106 % of control | dose: 120.0 mg/kg/injection, schedule: Q04DX002 (ip), vehicle: saline 116 % of control | dose: 172.0 mg/kg/injection, schedule: Q04DX002 (ip), vehicle: water 113 % of control | dose: 240.0 mg/kg/injection, schedule: Q04DX002 (ip), vehicle: saline 109 % of control | dose: 344.0 mg/kg/injection, schedule: Q04DX002 (ip), vehicle: water 113 % of control

c1ccc2c(c1)ncn2Sn1cnc2ccccc21
inactive: dose: 17.5 mg/kg/injection, schedule: Q01DX005 (ip), vehicle: Klucel (hydroxypropylcellulose) (HPC) 102 % of control | dose: 35.0 mg/kg/injection, schedule: Q01DX005 (ip), vehicle: Klucel (hydroxypropylcellulose) (HPC) 118 % of control | dose: 70.0 mg/kg/injection, schedule: Q01DX005 (ip), vehicle: Klucel (hydroxypropylcellulose) (HPC) 104 % of control

COC(=O)c1cc(-c2ccc([N+](=O)[O-])cc2)n2c(N)nnc2n1
inactive: [4] 92 % of control | [5] 86 % of control

COC(=O)C1(c2ccccc2)OP2(N(C)C)(OCCN2C)OC1(C(=O)OC)c1ccccc1 (stereo unspecified)
inactive: [1] 104 % of control | [2] 98 % of control | [3] 91 % of control

O=C(COP(=O)(OCC(=O)Oc1ccc([N+](=O)[O-])cc1)Oc1ccc([N+](=O)[O-])cc1)Oc1ccc([N+](=O)[O-])cc1
inactive: dose: 25.0 mg/kg/injection, schedule: Q01DX009 (ip), vehicle: other 102 % of control | dose: 50.0 mg/kg/injection, schedule: Q01DX009 (ip), vehicle: other 98 % of control | dose: 100.0 mg/kg/injection, schedule: Q01DX009 (ip), vehicle: other 93 % of control | dose: 200.0 mg/kg/injection, schedule: Q01DX009 (ip), vehicle: other 91 % of control | dose: 400.0 mg/kg/injection, schedule: Q01DX009 (ip), vehicle: other 108 % of control

COC(=O)/C(C#N)=C(C)/C=C/c1ccc(OC)cc1
inactive: dose: 100.0 mg/kg/injection, schedule: Q04DX003 (ip), vehicle: saline 97 % of control | dose: 200.0 mg/kg/injection, schedule: Q04DX003 (ip), vehicle: saline 92 % of control | dose: 400.0 mg/kg/injection, schedule: Q04DX003 (ip), vehicle: saline 98 % of control

BrCCCC1OCCO1
inactive: [4] 100 % of control | [5] 100 % of control | [6] 104 % of control

CCCCOc1ccc2nc(C)cc(N=[N+]=[N-])c2c1
inactive: dose: 30.0 mg/kg/injection, schedule: Q01DX005 (ip), vehicle: saline with Tween-80 94 % of control | [4] 86 % of control and 94 % of control | [5] 97 % of control | [6] 92 % of control

NC(=S)c1ccc2ccccc2c1
inactive: dose: 50.0 mg/kg/injection, schedule: Q01DX005 (ip), vehicle: Klucel (hydroxypropylcellulose) (HPC) 100 % of control | dose: 100.0 mg/kg/injection, schedule: Q01DX005 (ip), vehicle: Klucel (hydroxypropylcellulose) (HPC) 100 % of control | dose: 200.0 mg/kg/injection, schedule: Q01DX005 (ip), vehicle: Klucel (hydroxypropylcellulose) (HPC) 100 % of control

COCC[P+](c1ccccc1)(c1ccccc1)c1ccccc1
inactive: dose: 1.56 mg/kg/injection, schedule: Q01DX009 (ip), vehicle: water 103 % of control | dose: 3.13 mg/kg/injection, schedule: Q01DX009 (ip), vehicle: water 99 % of control and 109 % of control | dose: 6.25 mg/kg/injection, schedule: Q01DX009 (ip), vehicle: water 112 % of control and 123 % of control | dose: 12.5 mg/kg/injection, schedule: Q01DX009 (ip), vehicle: water 123 % of control | dose: 25.0 mg/kg/injection, schedule: Q01DX009 (ip), vehicle: water 105 % of control and 119 % of control | dose: 50.0 mg/kg/injection, schedule: Q01DX009 (ip), vehicle: water 116 % of control
